The target of assay [1] is S1P3 (Homo sapiens, UniProt Q99500). The assay is described as follows: Receptor binding assay, [33P]sphingosine 1-phosphate competition (SPA), S1P3. The procedure:
Membranes were prepared from CHO cells expressing S1P1 or S1P3 for use in ligand and […] binding studies. Cells were suspended in 50 mM TRIS, pH 7.4, 2 mM EDTA, 250 mM Sucrose (buffer A) and 1× Complete protease inhibitor cocktail (Roche), and disrupted at 4° C. by N2 decompression using a cell disruption bomb (Parr Instrument). Following centrifugation at 1000 RPM for 10 min at 4° C., the supernatant was diluted (2×) in buffer A and centrifuged again at 19000 RPM for 75 min at 4° C. The pellet was then suspended in 10 mM HEPES, pH 7.4, 1 mM EDTA, 250 mM Sucrose (Buffer B), and 1× Complete EDTA-free protease inhibitor cocktail and homogenized using a potter. Membranes were flash frozen in liquid N2 and stored at −80° C.
[33P]sphingosine 1-phosphate (3000 Ci/mmol; American Radiolabeled Chemicals, Inc.) was added to test compounds in 20% DMSO by competition. Membranes and WGA SPA beads (GE Healthcare) were added to give a final volume of 100 μl in 96-well plates or 50 μl in 384-well plates with assay concentrations of 30 pM or 15 pM [33P]sphingosine 1-phosphate (respectively for S1P1 or S1P3), 50 mM HEPES, pH 7.5, 5 mM MgCl2, 100 mM NaCl, 0.4% fatty acid-free BSA, 1-5 μg/well of proteins in 96-well plates vs 0.6-1 μg/well of proteins in 384-well plates and 100 μg/well of WGA SPA beads in 96-well plates vs 75 μg/well of WGA SPA beads in 384-well plates. Binding was performed for 60 min at RT on a shaker and bound radioactivity was measured on a PerkinElmer 1450 MicroBeta counter. Triplicate samples were averaged and normalized as percentage of inhibition relative to total binding (only DMSO in well) and non-specific binding (1000-fold excess of unlabeled S1P). Binding data were analyzed using the GraphPad Prism program or Genedata software.

Assay [2] addresses T1, S1P1 (Homo sapiens, UniProt P21453). The assay is described as follows: Receptor binding assay, [33P]sphingosine 1-phosphate competition (SPA), S1P1. The following applies: 384 well-plate; read-out: S1P1 binding Ki (M) (384 well-plate). On the procedure: Cells were suspended in 50 mM TRIS, pH 7.4, 2 mM EDTA, 250 mM Sucrose (buffer A) and 1× Complete protease inhibitor cocktail (Roche), and disrupted at 4° C. by N2 decompression using a cell disruption bomb (Parr Instrument). […] The pellet was then suspended in 10 mM HEPES, pH 7.4, 1 mM EDTA, 250 mM Sucrose (Buffer B), and 1× Complete EDTA-free protease inhibitor cocktail and homogenized using a potter. Membranes were flash frozen in liquid N2 and stored at −80° C.
[33P]sphingosine 1-phosphate (3000 Ci/mmol; American Radiolabeled Chemicals, Inc.) was added to test compounds in 20% DMSO by competition. […] Triplicate samples were averaged and normalized as percentage of inhibition relative to total binding (only DMSO in well) and non-specific binding (1000-fold excess of unlabeled S1P). Binding data were analyzed using the GraphPad Prism program or Genedata software.
Target sequence in this assay (P21453 whole entry, species assumed): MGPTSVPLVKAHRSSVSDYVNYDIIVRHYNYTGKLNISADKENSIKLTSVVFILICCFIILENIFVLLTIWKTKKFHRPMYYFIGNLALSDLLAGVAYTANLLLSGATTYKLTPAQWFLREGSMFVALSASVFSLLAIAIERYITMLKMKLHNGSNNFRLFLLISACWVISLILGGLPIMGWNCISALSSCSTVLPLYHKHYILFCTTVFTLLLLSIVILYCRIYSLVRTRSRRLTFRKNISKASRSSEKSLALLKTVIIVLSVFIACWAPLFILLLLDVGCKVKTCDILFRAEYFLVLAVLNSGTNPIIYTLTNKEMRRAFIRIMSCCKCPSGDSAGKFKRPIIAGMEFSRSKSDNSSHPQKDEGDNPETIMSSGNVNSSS

Assay [3] has as its target T1, S1P1. The assay is described as follows: S1P1 internalization assay in S1P1-U2OS cells (cell imaging). The following applies: U2OS cells expressing S1P1-EGFP, 1 hour. Type of assay: cell-based. The procedure: Cellular functional assays: Internalization of Sphingosine-1-phosphate receptor 1 (S1P1) in a human Cell line (U2OS) in a 384-well format using a Cell Imaging analysis.
The S1P1 internalization assay was performed in 384 well plates (Corning® 384 black with clear bottom 3712) using S1P1-U2OS cells from Biolmage (C039A), a human epithelial cell line (Human Bone Osteosarcoma Epithelial Cells). These cells expressed the human S1P1 Receptor fused to the green fluorescent protein (EGFP). A standard CMV promoter (cytomegalovirus promoter) controls the expression of S1P1-EGFP and continuous expression was maintained by addition of geneticin to the culture medium.
S1P1Receptor desensitization induced the internalization of the membrane-localized S1P1-EGFP fusion protein to endosomes, which can be monitored by cell imaging analysis. The cells are plated in low serum medium (Dulbecco's Modified Eagle Medium (DMEM) with Glutamax-1 and high glucose, 1% Penicillin/Streptomycin, 1% Fetal Calf Serum (FCS), 0.5 mg/ml Geneticin) overnight.
The next day, S1P1-U2OS cells are incubated in 20 μl serum free medium (DMEM with Glutamax-1 and high glucose, 0.1% of fatty-acid free Bovin Serum Albumin (BSA), 10 mM, N′-2-Hydroxyethylpiperazine-N′-2 ethanesulphonic acid (HEPES) 1M) for 2 hours at 37° C./5% CO2. The cells are then treated with 4 μl compounds/agonists (6×/3% DMSO) for a total volume of 24 μl, and plates are incubated for 1 hour at 37° C./5% CO2.
S1P1-U2OS cells are fixed with 25 μl Paraformaldehyde 8% and stained with Hoechst 33345 dye (1:1000) for 20 minutes.
They were then washed 3 times with Phosphate Buffered Saline (PBS) and plates are sealed. The internalization of the receptor S1P1-EGFP is measured on Cellomics by calculating the “spot count per object” (“object” corresponds to nuclear and “spot” corresponds to S1P1-EGFP receptor). Internalization data were observed thanks to vHCS View and analyzed using Genedata® software.
Target sequence in this assay (P21453 whole entry): as the sequence (P21453 whole entry, species assumed) above

[4] abbreviates: 96 well-plate, read-out: S1P3 binding Ki (M) (96 well-plate).
Setting [5] is: 384 well-plate, read-out: S1P3 binding Ki (M) (384 well-plate).

As a reminder, the Ki is the dissociation constant of the complex between target and ligand, obtained from inhibition or displacement. One may read the EC50 as the midpoint of the concentration-response curve. Lower therefore signals greater potency.

SMILES strings stand for the structures. Read-outs that look alike come from different tables or passages of the source.

Chain of S1P3 (Q99500 whole entry, species assumed): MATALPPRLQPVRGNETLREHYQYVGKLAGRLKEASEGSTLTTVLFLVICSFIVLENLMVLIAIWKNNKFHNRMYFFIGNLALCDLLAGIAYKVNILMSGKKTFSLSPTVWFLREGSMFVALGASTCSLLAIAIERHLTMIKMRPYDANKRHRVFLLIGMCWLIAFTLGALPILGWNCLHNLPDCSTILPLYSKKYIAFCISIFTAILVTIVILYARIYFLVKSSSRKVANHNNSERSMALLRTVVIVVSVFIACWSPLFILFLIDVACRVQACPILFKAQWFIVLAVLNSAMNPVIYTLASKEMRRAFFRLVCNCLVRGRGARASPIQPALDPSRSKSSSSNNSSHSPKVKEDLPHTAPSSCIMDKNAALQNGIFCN

For `Cc1cc(-c2nc(-c3cccc(CN(C)CC(=O)O)c3)no2)ccc1-c1ccccc1C(F)(F)F` [Example 101, N-methyl-N-(3-{5-[2-methyl-2′-(trifluoromethyl)biphenyl-4-yl]-1,2,4-oxadiazol-3-yl}benzyl)glycine], the values for the Ki in assay [1] (setting [4]), in assay [1] (setting [5]) and in assay [2] were 9.43e-06 M, 6.59e-06 M and 5.63e-09 M, respectively. The same molecule registered an EC50 in assay [3] of 69.3 nM.
`Cc1cc(CN(C)CC(=O)O)ccc1-c1noc(-c2ccc(-c3ccccc3C)c(C(F)(F)F)c2)n1` [Example 103, 2-(methyl(3-methyl-4-(5-(2′-methyl-2-(trifluoromethyl)biphenyl-4-yl)-1,2,4-oxadiazol-3-yl)benzyl)amino)acetic acid]: the values for the Ki in assay [1] (setting [4]), in assay [1] (setting [5]) and in assay [2] were 4.12e-07 M, 4.68e-07 M and 1.45e-09 M, respectively. Moreover, a half-maximal response in assay [3] (EC50) required 17.7 nM.
With `Cc1cc(-c2nc(-c3cc(F)cc(CN(C)CC(=O)O)c3)no2)ccc1-c1ccccc1C(F)(F)F` [Example 104, N-(3-fluoro-5-{5-[2-methyl-2′-(trifluoromethyl)biphenyl-4-yl]-1,2,4-oxadiazol-3-yl}benzyl)-N-methylglycine], the inhibition constant Ki in assay [1] (setting [5]) stood at 2.14e-06 M; in assay [2], 8.98e-09 M. Besides, it took 15 nM to reach a half-maximal effect in assay [3] (EC50).
As for `COCc1cc(-c2nc(-c3ccc(CN(C)CC(=O)O)c(C(F)(F)F)c3)no2)ccc1-c1ccccc1C` [Example 105], the results for the Ki in assay [1] (setting [4]), in assay [1] (setting [5]) and in assay [2] were 1.83e-06 M, 1.88e-06 M and 3.3e-09 M, respectively. In assay [3], this molecule yielded an EC50 of 74.9 nM.
Take `CCc1ccccc1-c1ccc(-c2nc(-c3ccc(CN(C)CC(=O)O)cc3)no2)cc1C(F)(F)F` [Example 109, N-(4-{5-[2′-ethyl-2-(trifluoromethyl)biphenyl-4-yl]-1,2,4-oxadiazol-3-yl}benzyl)-N-methylglycine]: the Ki stood at 2.93e-07 M in assay [1] (setting [5]) and 1.5e-09 M in assay [2]. In assay [3], this molecule had an EC50 of 11.9 nM.
Consider `Cc1ccccc1-c1ccc(-c2nc(-c3cccc(CN(C)CC(=O)O)c3F)no2)cc1C(F)(F)F` [Example 112, N-(2-fluoro-3-{5-[2′-methyl-2-(trifluoromethyl)biphenyl-4-yl]-1,2,4-oxadiazol-3-yl}benzyl)-N-methylglycine], for which the Ki in assay [1] (setting [4]) was 1.49e-07 M; in assay [1] (setting [5]), 1.92e-07 M; in assay [2], 4.95e-10 M. The response in assay [3] was half-maximal at 6.26 nM (EC50).
In the case of `Cc1ccccc1-c1ccc(-c2nc(-c3ccc(CN(CC(=O)O)C(C)C)cc3)no2)cc1C(F)(F)F` [Example 113, (Isopropyl-{4-[5-(2′-methyl-2-trifluoromethyl-biphenyl-4-yl)-[1,2,4]oxadiazol-3-yl]-benzyl}-amino)-acetic acid], the Ki in assay [1] (setting [4]) turned out to be 2.17e-06 M; in assay [1] (setting [5]) it was 2.7e-06 M; in assay [2] it was 2.9e-09 M. The EC50 in assay [3] is 24.8 nM.
`COCc1cc(-c2nc(-c3cccc(CN(C)CC(=O)O)c3F)no2)ccc1-c1ccccc1C(F)(F)F` [Example 114, N-(2-fluoro-3-{5-[2-(methoxymethyl)-2′-(trifluoromethyl)biphenyl-4-yl]-1,2,4-oxadiazol-3-yl}benzyl)-N-methylglycine]: the Ki in assay [1] (setting [4]) is 1.09e-06 M; in assay [1] (setting [5]) it was 9.14e-07 M; in assay [2], 1.91e-09 M. Further, the half-maximal effective concentration (EC50) in assay [3] amounted to 15.6 nM.
Regarding `CCOc1cc(-c2nc(-c3ccc(CN(C)CC(=O)O)cc3)no2)ccc1-c1ccccc1C(F)(F)F` [Example 115, N-(4-{5-[2-ethoxy-2′-(trifluoromethyl)biphenyl-4-yl]-1,2,4-oxadiazol-3-yl}benzyl)-N-methylglycine], the results for the Ki in assay [1] (setting [4]), in assay [1] (setting [5]) and in assay [2] were 6.68e-07 M, 2.21e-06 M and 2.15e-09 M, respectively. Further, a half-maximal response in assay [3] (EC50) required 9.03 nM.
`Cc1ccccc1-c1ccc(-c2nc(-c3ccc(CN(C)CCCC(=O)O)cc3)no2)cc1C(F)(F)F` [Example 116, 4-[methyl(4-{5-[2′-methyl-2-(trifluoromethyl)biphenyl-4-yl]-1,2,4-oxadiazol-3-yl}benzyl)amino]butanoic acid]: the Ki in assay [1] (setting [4]) stood at 3.33e-07 M; in assay [1] (setting [5]), 1.31e-06 M; in assay [2], 1.33e-09 M. Further, in assay [3], it took 3.65 nM to reach a half-maximal effect (EC50).
Take `Cc1cc(-c2nc(-c3ccc(CN(C)CC(=O)O)c(F)c3)no2)ccc1-c1ccccc1C(F)(F)F` [Example 123, N-(2-fluoro-4-{5-[2-methyl-2′-(trifluoromethyl)biphenyl-4-yl]-1,2,4-oxadiazol-3-yl}benzyl)-N-methylglycine]: the inhibition constant Ki in assay [1] (setting [5]) came out at 6.9e-06 M; in assay [2], 3.46e-09 M. Also, in assay [3], the response was half-maximal at 30.4 nM (EC50).
On the same counts, the results for `Cc1ccccc1-c1ccc(-c2nc(-c3ccc(CN(C)CC(=O)O)c(Cl)c3)no2)cc1C(F)(F)F` [Example 129, 2-((4-(5-(2-(trifluoromethyl)-2′-methylbiphenyl-4-yl)-1,2,4-oxadiazol-3-yl)-2-chlorobenzyl)(methyl)amino)acetic acid] are 9.76e-07 M, 5.33e-09 M and 23.3 nM.
Turning to `CN(CC(=O)O)Cc1ccc(-c2noc(-c3ccc(-c4ccccc4C(F)(F)F)c(Cl)c3)n2)cc1F` [Example 134, N-(4-{5-[2-chloro-2′-(trifluoromethyl)biphenyl-4-yl]-1,2,4-oxadiazol-3-yl}-2-fluorobenzyl)-N-methylglycine], the Ki was determined as 1.8e-05 M in assay [1] (setting [5]) and 4.07e-09 M in assay [2]. For the same molecule, the EC50 in assay [3] was determined as 37.3 nM.
On the same counts, the results for `CN(CC(=O)O)Cc1cc(F)cc(-c2noc(-c3ccc(-c4ccccc4C(F)(F)F)c(Cl)c3)n2)c1` [Example 136, N-(3-{5-[2-chloro-2′-(trifluoromethyl)biphenyl-4-yl]-1,2,4-oxadiazol-3-yl}-5-fluorobenzyl)-N-methylglycine] are 2.32e-06 M, 4.27e-09 M and 40.9 nM.
`COCCN(CC(=O)O)Cc1ccc(-c2noc(-c3ccc(-c4ccccc4C)c(C(F)(F)F)c3)n2)cc1` [Example 138, N-(2-methoxyethyl)-N-(4-{5-[2′-methyl-2-(trifluoromethyl)biphenyl-4-yl]-1,2,4-oxadiazol-3-yl}benzyl)glycine]: the Ki turned out to be 4.79e-07 M in assay [1] (setting [5]) and 5.16e-09 M in assay [2]. In assay [3], this molecule came in with an EC50 of 26.1 nM.
Regarding `Cc1ccccc1-c1ccc(-c2nc(-c3ccc(CN(C)CC(=O)O)cc3Cl)no2)cc1C(F)(F)F` [Example 145, 2-((4-(5-(2-(trifluoromethyl)-2′-methylbiphenyl-4-yl)-1,2,4-oxadiazol-3-yl)-3-chlorobenzyl)(methyl)amino)acetic acid], the inhibitory constant (Ki) in assay [1] (setting [5]) was found to be 2.85e-07 M; in assay [2], 2.22e-09 M. The molecule further displayed an EC50 in assay [3] of 9.44 nM.

Values taken from patent US8802704B2, “Oxadiazole derivatives” (Merck Serono SA, priority 2009, dated 2014).
